Results as given in patent publication US20120282169A1, “DETECTION AND TREATMENT OF TRAUMATIC BRAIN INJURY” (Adlyfe, Inc., priority 2009, published 2012).
[ ]: non-standard residue; d: D form. The star is where a group is joined. Butanoyl(4-pyren-1-yl) = O=C(CCCc1ccc2ccc3cccc4ccc1c2c34)*; Biotin = O=C1N[C@H]2[C@H](CS[C@H]2CCCCC(=O)*)N1

How the values were obtained:
[1] = target: synthetic Aβ42 oligomer (Aβ42 Oligo Type A) (Homo sapiens, UniProt P05067); experiment: Plate-based ELISA-like assay with immobilized biotinylated peptide probe (6E10-HRP/TMB detection); type: binding
Experimental: FIG. 4A and FIG. 4B illustrate the results in buffer and 10% soluble mouse brain extract using SEQ ID NO:41 as a peptide probe. […] The white bars indicate control reactions in which peptide are not added. Black bars show the complete reaction in which 9000, 1500, 250, 42, 7, 1.2, 0.2, or 0 pM Aβ42 oligomer is added (in triplicate) to wells containing bound peptide probe of SEQ ID NO:41.
The white bars indicate control reactions in which peptide are not added. Black bars show the complete reaction in which 10% human TBS brain extract containing 750, 250, 85, 28, 9.5, 3.1, or 0 pM Aβ42 oligomer is added (in triplicate) to wells containing bound peptide probe of SEQ ID NO:41.
FIG. 5A and FIG. 5B illustrate the results in 10% (A) and 30% (B) human brain TBS extract using SEQ ID NO:41 as a peptide probe. […] The white bars indicate control reactions in which peptide is not added. Black bars show the complete reaction in which 10% human TBS brain extract containing 750, 250, 85 or 0 pM Aβ42 oligomer is added (in triplicate) to wells containing bound peptide probe of SEQ ID NO:41.
The white bars indicate control reactions in which peptide are not added. Black bars show the complete reaction in which 30% human TBS brain extract containing 750, 250, 85, 28, 9.5, 3.1, or 0 pM Aβ42 oligomer is added (in triplicate) to wells containing bound peptide probe of SEQ ID NO:41.

Aβ40 Dimer = details: Mouse
Experimental: (§1) A plate-based ELISA-like assay was developed in which the above-described peptide probes may be used to capture and detect target amyloid beta protein (such as oligomers). […] Streptavidin-coated 96-well plates are prepared, followed by introduction of biotinylated peptide. Sample is then added to the wells and allowed to incubate, such as for two hours at room temperature. Any target amyloid beta protein in the sample will be capture by the immobilized peptide probe. The plate is then washed, such as using a low salt buffer to eliminate potential interfering factors (e.g. endogenous proteins, lipids, and other debris). The remaining amyloid beta aggregate-peptide probe complex is bound to a reporter antibody that is specific for the N-terminus of the amyloid beta sequence (6E10-HRP), and detected by addition of 3,3′,5,5′-tetramethylbenzidine (TMB).
(§2) Soluble brain extracts are prepared according to a known method. For example 5 mL tris-buffered saline (PH 7.4) is added per gram of frozen brain tissue, and then homogenized with a dounce homogenizer (25 strokes). The material is then centrifuged at 21,900× g for 30 minutes at 4 C. The resulting TBS supernatant (soluble extract) is used at 10-30% (v/v) final concentration in the following assays.

Aβ40 monomer [2] = target: T1, Aβ40 monomer (Homo sapiens, UniProt P05067); experiment: Plate-based ELISA-like assay with immobilized biotinylated peptide probe; type: binding; details: for Limit of detection, Aβ40 Monomer: up to 15 nM
Experimental: as §1, §2

Aβ42 Oligo (Type B) = Aβ42 Oligo (Type B) (Homo sapiens, UniProt P05067); experiment: as above; type: binding
Experimental: as §1, §2

Aβ42 monomer [3] = target: T2, Aβ42 monomer (Homo sapiens, UniProt P05067); experiment: as above; type: binding; details: for Limit of detection, Aβ42 Monomer: up to 15 nM
Experimental: as §1, §2

human serum albumin [4] = target: T3, human serum albumin (Homo sapiens, UniProt P02768); experiment: as above; type: binding
Experimental: as §1, §2

synthetic Aβ42 oligomer = synthetic Aβ42 oligomer (Homo sapiens, UniProt P05067); experiment: Self-fluorescence assay of pyrene-labeled probe with synthetic Aβ42 oligomer; type: binding; details: 70 nM probe
Experimental: 70 nM of the peptide probe of SEQ ID NO:2 is incubated with 4000, 2000, 1000, 450, 250 and 0 pM synthetic Aβ42 oligomer (in triplicate) in a solution consisting of 10 mM Hepes (pH 7.0), 0.0074% Tween20 and 30% (v/v) normal human CSF (Bioreclamations, Inc.) for 0, 3, and 18 hours at room temperature in a final volume of 200 μL in a microtiter plate. The plate is then analyzed using a Tecan safire^2 fluorescence plate reader. For each sample, the net self-fluorescence response (fluorescence emission from 370-385 nm) is determined by subtraction of the self-fluorescence response of the control (0 pM) from the fluorescence response of the experimental sample.
The specificity of the probe is confirmed as follows. 70 nM of the peptide probe of SEQ ID NO:22 is incubated with several potential substrates in a solution consisting of 10 mM Hepes (pH 7.0), 0.0074% Tween20 and 10% (v/v) normal human CSF. […] There also is a significant response to Aβ42 fiber down to at least 100 nN. […]
70 nM of each of the two peptoid probes 1 or 2 is incubated with 15, 5, 1.5 or 0 nM synthetic Aβ42 oligomer (in triplicate). […] The plate is then analyzed using a Tecan safire^2 fluorescence plate reader. For each sample, the self-fluorescence response (fluorescence emission from 370-385 nm) of the peptoid is plotted as a function of amyloid beta aggregate concentration.

Aβ42 fiber = Aβ42 fiber (Homo sapiens, UniProt P05067); experiment: Self-fluorescence specificity assay of probe in 10% human CSF; type: binding; set-up: unit not given here; details: 70 nM probe; 10% (v/v) normal human CSF; FIG. 2
Experimental: (§3) The specificity of the probe is confirmed as follows. 70 nM of the peptide probe of SEQ ID NO:22 is incubated with several potential substrates in a solution consisting of 10 mM Hepes (pH 7.0), 0.0074% Tween20 and 10% (v/v) normal human CSF. […] There also is a significant response to Aβ42 fiber down to at least […]. […] Since fibers are easily removed from the reaction by a centrifugation step, specificity for amyloid beta oligomers is easily obtained.

Aβ40 fiber = Aβ40 fiber (Homo sapiens, UniProt P05067); experiment: as above; type: binding; details: 70 nM probe; 10% (v/v) normal human CSF; FIG. 2
Experimental: as §3

Aβ40 monomer [5] = target: T1, Aβ40 monomer; experiment: as above; type: binding; details: 70 nM probe; 10% (v/v) normal human CSF; FIG. 2
Experimental: as §3

Aβ42 monomer [6] = target: T2, Aβ42 monomer; experiment: as above; type: binding; details: 70 nM probe; 10% (v/v) normal human CSF; FIG. 2
Experimental: as §3

carbonic anhydrase = experiment: as above; type: binding; details: 70 nM probe; 10% (v/v) normal human CSF; FIG. 2
Experimental: as §3

human serum albumin [7] = target: T3, human serum albumin; experiment: as above; type: binding; details: 70 nM probe; 10% (v/v) normal human CSF; except at the highest dose, 0.16 mg/mL; FIG. 2
Experimental: as §3

human serum albumin [8] = target: human serum albumin (human, UniProt P02768 25-609); experiment: plate assay, biotinylated probe on streptavidin plate, 6E10-HRP/TMB detection; Human column (brain extract)

PBA-KLVFFAEDVGSNKHAIIELMK(PBA)GLVPR GSGK(biotin)-NH2 [SEQ ID NO:41]
lowest amount of amyloid beta aggregate detected in plate assay (t-test) ([1]; 10% human TBS brain extract, FIG. 4B): 28 pM
amyloid beta aggregate detectable down to ([1]; 30% human TBS brain extract, FIG. 5B): ≤ 85 pM
Limit of detection, Aβ42 Oligo (Type A) ([1]; Human): ~28 pM
Limit of detection, Aβ42 Oligo (Type A) ([1]; Mouse): ~28 to 85 pM
lowest amount of amyloid beta aggregate detected in plate assay (t-test) ([1]; buffer system, FIG. 4A): 7 pM
Limit of detection, Aβ40 Dimer (Aβ40 Dimer): 850 pM
Limit of detection, Aβ40 Monomer (Aβ40 monomer [2]; Human): Not detected
Limit of detection, Aβ40 Monomer (Aβ40 monomer [2]; Mouse): Not detected
TMB response to Aβ40 monomer (Aβ40 monomer [2]; plate assay): little to no TMB response
Limit of detection, Aβ42 Oligo (Type B) (Aβ42 Oligo (Type B); Human): 8.5 pM
Limit of detection, Aβ42 Oligo (Type B) (Aβ42 Oligo (Type B); Mouse): ~8.5 pM
Limit of detection, Aβ42 Monomer (Aβ42 monomer [3]; Human): Not detected
Limit of detection, Aβ42 Monomer (Aβ42 monomer [3]; Mouse): Not detected
TMB response to Aβ42 monomer (Aβ42 monomer [3]; plate assay): little to no TMB response
Limit of detection, has (human serum albumin [4]; Human, up to 0.15 mg/mL): Not detected
Limit of detection, has (human serum albumin [4]; Mouse): Not detected
TMB response to human serum albumin (human serum albumin [4]; plate assay): little to no TMB response

PBA-KLVFFAEDVGSNKGAIIGLMK(PBA)rr-NH2 ({Butanoyl(4-pyren-1-yl)}-KLVFFAEDVGSNKGAIIGLMK(Butanoyl(4-pyren-1-yl))[dR][dR]-NH2; SMILES CC[C@H](C)[C@H](NC(=O)[C@H](C)NC(=O)CNC(=O)[C@H](CCCCN)NC(=O)[C@H](CC(N)=O)NC(=O)[C@H](CO)NC(=O)CNC(=O)[C@@H](NC(=O)[C@H](CC(=O)O)NC(=O)[C@H](CCC(=O)O)NC(=O)[C@H](C)NC(=O)[C@H](Cc1ccccc1)NC(=O)[C@H](Cc1ccccc1)NC(=O)[C@@H](NC(=O)[C@H](CC(C)C)NC(=O)[C@H](CCCCN)NC(=O)CCCc1ccc2ccc3cccc4ccc1c2c34)C(C)C)C(C)C)C(=O)N[C@H](C(=O)NCC(=O)N[C@@H](CC(C)C)C(=O)N[C@@H](CCSC)C(=O)N[C@@H](CCCCNC(=O)CCCc1ccc2ccc3cccc4ccc1c2c34)C(=O)N[C@H](CCCNC(=N)N)C(=O)N[C@H](CCCNC(=N)N)C(N)=O)[C@@H](C)CC) [SEQ ID NO:22, WT, with 2 C-terminal dArg residues, and alternate label site]
peptide probe fluorescence response to Aβ42 oligomer (synthetic Aβ42 oligomer; 10% (v/v) normal human CSF, FIG. 2): strong and dose-dependent response
lowest Aβ42 fiber concentration giving significant response (Aβ42 fiber): ≤ 100
peptide fluorescence response to Aβ40 fiber (Aβ40 fiber): little or no peptide fluorescence response
peptide fluorescence response to Aβ40 monomer (Aβ40 monomer [5]): little or no peptide fluorescence response
peptide fluorescence response to Aβ42 monomer (Aβ42 monomer [6]): little or no peptide fluorescence response
peptide fluorescence response to carbonic anhydrase (carbonic anhydrase): little or no peptide fluorescence response
peptide fluorescence response to human serum albumin (human serum albumin [7]): little or no peptide fluorescence response

PBA-KLVFFAEDVGSNKHAIIELMK(PBA)-NH2 ({Butanoyl(4-pyren-1-yl)}-KLVFFAEDVGSNKHAIIELMK(Butanoyl(4-pyren-1-yl))-NH2; SMILES CC[C@H](C)[C@H](NC(=O)[C@H](C)NC(=O)[C@H](Cc1c[nH]cn1)NC(=O)[C@H](CCCCN)NC(=O)[C@H](CC(N)=O)NC(=O)[C@H](CO)NC(=O)CNC(=O)[C@@H](NC(=O)[C@H](CC(=O)O)NC(=O)[C@H](CCC(=O)O)NC(=O)[C@H](C)NC(=O)[C@H](Cc1ccccc1)NC(=O)[C@H](Cc1ccccc1)NC(=O)[C@@H](NC(=O)[C@H](CC(C)C)NC(=O)[C@H](CCCCN)NC(=O)CCCc1ccc2ccc3cccc4ccc1c2c34)C(C)C)C(C)C)C(=O)N[C@H](C(=O)N[C@@H](CCC(=O)O)C(=O)N[C@@H](CC(C)C)C(=O)N[C@@H](CCSC)C(=O)N[C@@H](CCCCNC(=O)CCCc1ccc2ccc3cccc4ccc1c2c34)C(N)=O)[C@@H](C)CC) [SEQ ID NO:2, Salt bridge at G29H and G33E]
Aβ42 oligomer concentration statistically distinguishable from the control reaction (net self-fluorescence response, t-test) (synthetic Aβ42 oligomer; 10 mM Hepes pH 7.0, 0.0074% Tween20, 30% (v/v) normal human CSF, emission 370-385 nm, FIG. 1): 450 pM

B1: peptide probe of SEQ ID NO:41 (peptide)
peptide: {Butanoyl(4-pyren-1-yl)}-KLVFFAEDVGSNKHAIIELMK(Butanoyl(4-pyren-1-yl))GLVPRGSGK(Biotin)-NH2
SMILES: CC[C@H](C)[C@H](NC(=O)[C@H](C)NC(=O)[C@H](Cc1c[nH]cn1)NC(=O)[C@H](CCCCN)NC(=O)[C@H](CC(N)=O)NC(=O)[C@H](CO)NC(=O)CNC(=O)[C@@H](NC(=O)[C@H](CC(=O)O)NC(=O)[C@H](CCC(=O)O)NC(=O)[C@H](C)NC(=O)[C@H](Cc1ccccc1)NC(=O)[C@H](Cc1ccccc1)NC(=O)[C@@H](NC(=O)[C@H](CC(C)C)NC(=O)[C@H](CCCCN)NC(=O)CCCc1ccc2ccc3cccc4ccc1c2c34)C(C)C)C(C)C)C(=O)N[C@H](C(=O)N[C@@H](CCC(=O)O)C(=O)N[C@@H](CC(C)C)C(=O)N[C@@H](CCSC)C(=O)N[C@@H](CCCCNC(=O)CCCc1ccc2ccc3cccc4ccc1c2c34)C(=O)NCC(=O)N[C@@H](CC(C)C)C(=O)N[C@H](C(=O)N1CCC[C@H]1C(=O)N[C@@H](CCCNC(=N)N)C(=O)NCC(=O)N[C@@H](CO)C(=O)NCC(=O)N[C@@H](CCCCNC(=O)CCCC[C@@H]1SC[C@@H]2NC(=O)N[C@@H]21)C(N)=O)C(C)C)[C@@H](C)CC
notes: P22 with a thrombin site linker and biotin at the C-terminus, immobilised on streptavidin-coated plates; also called AD317; biotinylated peptide probe
binding result (human serum albumin [8]): no binding (tested: up to 0.15 mg/mL)
